From PubChem BioAssay AID1963976 (Molecular Pharmacology Branch, DTP, NCI, 2024)

System: 435261-313-R-J1-PDC tumor spheroid viability
Assay: Anticancer human tumor 435261-313-R-J1-PDC patient-derived colon adenocarcinoma cell line growth inhibition [PI3K]
Conditions: spheroids with HUVEC and MSC; for IC50: curve of first compound; for viability, T/C: stronger effect = lower value
Procedure, shortened: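 High-throughput combination screen: PI3K inhibitors crossed with targeted small molecules on complex spheroids of tumor cells, HUVEC and MSCs at 37 degrees C, 5% CO2. Top concentration was at or near clinical Cmax (otherwise 10 microM), with half-log decrements.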

[1] = second compound 0.00316 µM, first compound 0.0316 µM
[2] = second compound 0.00316 µM, first compound 0.1 µM
[3] = second compound 0.01 µM, first compound 0.0316 µM
[4] = second compound 0.01 µM, first compound 0.1 µM
[5] = second compound 0.0316 µM, first compound 0.0316 µM
[6] = second compound 0.0316 µM, first compound 0.1 µM
[7] = second compound 0.1 µM, first compound 0.0316 µM
[8] = second compound 0.1 µM, first compound 0.1 µM
[9] = second compound 0.316 µM, first compound 0.0316 µM
[10] = second compound 0.316 µM, first compound 0.1 µM
[11] = second compound 1 µM, first compound 0.0316 µM
[12] = second compound 1 µM, first compound 0.1 µM
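Further: spheroids exposed to compounds for 7 days.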

CC(C)n1nc(-c2ccc3oc(N)nc3c2)c2c(N)ncnc21 + COc1c(OCCCN2CCOCC2)ccc2c3n(c(=NC(=O)c4cnc(N)nc4)nc12)CCN3
IC50 (second compound 0.00316 µM): 11.8 nM
IC50 (second compound 0.01 µM): 1.34 nM
IC50 (second compound 0.0316 µM): < 0.316 nM
IC50 (second compound 0.1 µM): < 0.316 nM
IC50 (second compound 0.316 µM): < 0.316 nM
IC50 (second compound 1 µM): < 0.316 nM
viability, T/C (second compound 0.00316 µM, first compound 0.000316 µM): 66.9%
viability, T/C (second compound 0.00316 µM, first compound 0.001 µM): 47.5%
viability, T/C (second compound 0.00316 µM, first compound 0.00316 µM): 74.6%
viability, T/C (second compound 0.00316 µM, first compound 0.01 µM): 51.4%
viability, T/C [1]: 27.4%
viability, T/C [2]: 12.1%
viability, T/C (second compound 0.01 µM, first compound 0.000316 µM): 48.1%
viability, T/C (second compound 0.01 µM, first compound 0.001 µM): 56.3%
viability, T/C (second compound 0.01 µM, first compound 0.00316 µM): 46.8%
viability, T/C (second compound 0.01 µM, first compound 0.01 µM): 32.2%
viability, T/C [3]: 21.7%
viability, T/C [4]: 10.8%
viability, T/C (second compound 0.0316 µM, first compound 0.000316 µM): 25.7%
viability, T/C (second compound 0.0316 µM, first compound 0.001 µM): 22.9%
viability, T/C (second compound 0.0316 µM, first compound 0.00316 µM): 24%
viability, T/C (second compound 0.0316 µM, first compound 0.01 µM): 19.4%
viability, T/C [5]: 16.4%
viability, T/C [6]: 9.19%
viability, T/C (second compound 0.1 µM, first compound 0.000316 µM): 16.6%
viability, T/C (second compound 0.1 µM, first compound 0.001 µM): 14.2%
viability, T/C (second compound 0.1 µM, first compound 0.00316 µM): 14%
viability, T/C (second compound 0.1 µM, first compound 0.01 µM): 13.6%
viability, T/C [7]: 10.3%
viability, T/C [8]: 5.04%
viability, T/C (second compound 0.316 µM, first compound 0.000316 µM): 8.4%
viability, T/C (second compound 0.316 µM, first compound 0.001 µM): 7.74%
viability, T/C (second compound 0.316 µM, first compound 0.00316 µM): 6.9%
viability, T/C (second compound 0.316 µM, first compound 0.01 µM): 6.3%
viability, T/C [9]: 4.52%
viability, T/C [10]: 2.1%
viability, T/C (second compound 1 µM, first compound 0.000316 µM): 4.2%
viability, T/C (second compound 1 µM, first compound 0.001 µM): 4.04%
viability, T/C (second compound 1 µM, first compound 0.00316 µM): 3.72%
viability, T/C (second compound 1 µM, first compound 0.01 µM): 3.28%
viability, T/C [11]: 3.57%
viability, T/C [12]: 2.22%

CC1(C)CCC(CN2CCN(c3ccc(C(=O)NS(=O)(=O)c4ccc(NCC5CCOCC5)c([N+](=O)[O-])c4)c(Oc4cnc5[nH]ccc5c4)c3)CC2)=C(c2ccc(Cl)cc2)C1 + COc1c(OCCCN2CCOCC2)ccc2c3n(c(=NC(=O)c4cnc(N)nc4)nc12)CCN3
IC50 (second compound 0.00316 µM): 4970 nM
IC50 (second compound 0.01 µM): 3250 nM
IC50 (second compound 0.0316 µM): < 31.6 nM
IC50 (second compound 0.1 µM): < 31.6 nM
IC50 (second compound 0.316 µM): < 31.6 nM
IC50 (second compound 1 µM): < 31.6 nM
viability, T/C [1]: 77.8%
viability, T/C [2]: 65%
viability, T/C (second compound 0.00316 µM, first compound 0.316 µM): 59.7%
viability, T/C (second compound 0.00316 µM, first compound 1 µM): 66.4%
viability, T/C (second compound 0.00316 µM, first compound 3.16 µM): 92.9%
viability, T/C (second compound 0.00316 µM, first compound 10 µM): 15.3%
viability, T/C [3]: 45.6%
viability, T/C [4]: 41.2%
viability, T/C (second compound 0.01 µM, first compound 0.316 µM): 44%
viability, T/C (second compound 0.01 µM, first compound 1 µM): 81%
viability, T/C (second compound 0.01 µM, first compound 3.16 µM): 49.6%
viability, T/C (second compound 0.01 µM, first compound 10 µM): 10%
viability, T/C [5]: 25.2%
viability, T/C [6]: 25.9%
viability, T/C (second compound 0.0316 µM, first compound 0.316 µM): 28.5%
viability, T/C (second compound 0.0316 µM, first compound 1 µM): 22.6%
viability, T/C (second compound 0.0316 µM, first compound 3.16 µM): 33.9%
viability, T/C (second compound 0.0316 µM, first compound 10 µM): 8.36%
viability, T/C [7]: 16.8%
viability, T/C [8]: 15.3%
viability, T/C (second compound 0.1 µM, first compound 0.316 µM): 14.9%
viability, T/C (second compound 0.1 µM, first compound 1 µM): 13.9%
viability, T/C (second compound 0.1 µM, first compound 3.16 µM): 13.5%
viability, T/C (second compound 0.1 µM, first compound 10 µM): 5.88%
viability, T/C [9]: 8.12%
viability, T/C [10]: 8.36%
viability, T/C (second compound 0.316 µM, first compound 0.316 µM): 8.35%
viability, T/C (second compound 0.316 µM, first compound 1 µM): 7.93%
viability, T/C (second compound 0.316 µM, first compound 3.16 µM): 9.73%
viability, T/C (second compound 0.316 µM, first compound 10 µM): 4.39%
viability, T/C [11]: 4.19%
viability, T/C [12]: 4.08%
viability, T/C (second compound 1 µM, first compound 0.316 µM): 4.61%
viability, T/C (second compound 1 µM, first compound 1 µM): 5.2%
viability, T/C (second compound 1 µM, first compound 3.16 µM): 6.19%
viability, T/C (second compound 1 µM, first compound 10 µM): 3.8%
